In patent publication US9440941B2, “Substituted chroman-6-yloxy-cycloalkanes and their use as pharmaceuticals” (SANOFI, priority 2013, dated 2016):
Structures can show the parent of a compound that is named as a salt.

The compounds below were run against T1, human NCX1 (Homo sapiens, UniProt P32418) (assay: Inhibition of Ca2+ influx into cells (NCX1 reverse mode), FLIPR Fluo-4 assay). Details: at 10 μM; NCX1 reverse mode; IC50 value not determined; read-out: Inhibition in % at 10 μM (NCX1rv).
T1 construct: expressed in transfected cells
Type: cell-based
How it was run: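 Ca2+ influx via reverse-mode exchange was evoked with gramicidin (20 µM final) after 45 min compound exposure at 16 °C in stably transfected CHO cells. Fluo-4 signal (520 nm) was followed on FLIPR at 2 s intervals. Max–min fluorescence gave percentage inhibition, from which IC50 was calculated.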

inhibition at 10 µM [%] | Structure (SMILES)
85 | Cc1ccccc1C1CCc2cc(OC3CCC(NCCSC(C)C)CC3)ccc2O1 (centres unmarked) [compound 194]
96 | CCC(COC)NC1CCC(Oc2ccc3c(c2)CCC(c2ccccc2C)O3)CC1 (centres unmarked) [compound 195]
97 | Cc1ccccc1C1CCc2cc(OC3CCC(NCCC4CCOCC4)CC3)ccc2O1 (centres unmarked) [compound 196]
96 | Cc1ccccc1C1CCc2cc(OC3CCC(NC4CCOCC4)CC3)ccc2O1 (centres unmarked) [compound 197]
97 | Cc1ccccc1C1CCc2cc(OC3CCC(NCCCC4CCOC4)CC3)ccc2O1 (centres unmarked) [compound 198]
71 | Cc1ccccc1C1CCc2cc(OC3CCC(NCCCOC4CCCC4)CC3)ccc2O1 (centres unmarked) [compound 199]
94 | COCC(C)(C)CNC1CCC(Oc2ccc3c(c2)CCC(c2ccccc2C)O3)CC1 (centres unmarked) [compound 200]
98 | CCOCCCNC1CCC(Oc2ccc3c(c2)CCC(c2ccccc2C)O3)CC1 (centres unmarked) [compound 201]

Same assay, conditions: at 10 μM; NCX1 reverse mode; IC50 value not determined; read-out: NCX1rv inhibition in % at 10 μM

inhibition at 10 µM [%] | Structure (SMILES)
99 | Cc1ccccc1C1CCc2cc(OC3CCC(NCC4CCCO4)CC3)ccc2O1 (centres unmarked) [compound 187]
96 | COCC(C)NC1CCC(Oc2ccc3c(c2)CCC(c2ccccc2C)O3)CC1 (centres unmarked) [compound 188]
100 | COCCNC1CCC(Oc2ccc3c(c2)CCC(c2ccccc2C)O3)CC1 (centres unmarked) [compound 189]
93 | Cc1ccccc1C1CCc2cc(OC3CCC(NCCCOC(C)C)CC3)ccc2O1 (centres unmarked) [compound 190]
95 | CCSCCNC1CCC(Oc2ccc3c(c2)CCC(c2ccccc2C)O3)CC1 (centres unmarked) [compound 191]
98 | CSCCNC1CCC(Oc2ccc3c(c2)CCC(c2ccccc2C)O3)CC1 (centres unmarked) [compound 192]
99 | COCCCNC1CCC(Oc2ccc3c(c2)CCC(c2ccccc2C)O3)CC1 (centres unmarked) [compound 193]

Same assay, conditions: inhibition of NCX1 in reverse mode (Ca2+ influx into cells); read-out: NCX1rv IC50

Structure (SMILES) | IC50 [nM]
c1ccc(C2CCc3cc(OC4CCC(NCCSC5CCCCC5)CC4)ccc3O2)cc1 (centres unmarked) [compound 117] | 3700
CC(C)N1CCC(CNC2CCC(Oc3ccc4c(c3)CCC(c3ccccc3)O4)CC2)CC1 (centres unmarked) [compound 118] | 2100
CCCC1(NC2CCC(Oc3ccc4c(c3)CCC(c3ccccc3)O4)CC2)CC1 (centres unmarked) [compound 124] | 2400
c1ccc(C2CCc3cc(OC4CCC(NC5CCOCC5)CC4)ccc3O2)cc1 (centres unmarked) [compound 125] | 1900
CC(CN(C)C)NC1CCC(Oc2ccc3c(c2)CCC(c2ccccc2)O3)CC1 (centres unmarked) [compound 128] | 1700
O=C(C1CCC(Oc2ccc3c(c2)CCC(c2ccccc2)O3)CC1)N(CCO)CCO (centres unmarked) [compound 157, N,N-Bis(2-hydroxyethyl)-4-(2-phenylchroman-6-yloxy)-cyclohexanecarboxamide] | 2000
CC(C)(C)CNC1CCC(Oc2ccc3c(c2)CCC(c2ccccc2)O3)CC1 (centres unmarked) [compound 162, N-(2,2-Dimethylpropyl)-4-(2-phenylchroman-6-yloxy)-cyclohexylamine] | 2300
Cc1cccc(C)c1C1CCc2cc(OC3CCC(NCc4c(C)nn(C)c4C)CC3)ccc2O1 (centres unmarked) [compound 164] | 9400
CSC(C)CCNC1CCC(Oc2ccc3c(c2)CCC(c2c(C)cccc2C)O3)CC1 (centres unmarked) [compound 165] | 10000
Cc1cccc(C)c1C1CCc2cc(OC3CCC(C(=O)NCCO)CC3)ccc2O1 (centres unmarked) [compound 166] | 6200
Cc1cccc(C)c1C1CCc2cc(OC3CCC(C(=O)NCc4ccno4)CC3)ccc2O1 (centres unmarked) [compound 167] | 7700
Cc1nn(C)c(C)c1CNC1CCC(Oc2ccc3c(c2)CCC(c2ccccc2F)O3)CC1 (centres unmarked) [compound 169] | 2500
CSC(C)CCNC1CCC(Oc2ccc3c(c2)CCC(c2ccccc2F)O3)CC1 (centres unmarked) [compound 170] | 4600
CSC(C)CCNC1CCC(Oc2ccc3c(c2)CCC(c2ccccc2C)O3)CC1 (centres unmarked) [compound 175] | 3500
CCn1nccc1CNC(=O)C1CCC(Oc2ccc3c(c2)CCC(c2ccccc2F)O3)CC1 (centres unmarked) [compound 183] | 10000
Cc1ccccc1C1CCc2cc(OC3CCC(NCCN4CCOCC4)CC3)ccc2O1 (centres unmarked) [compound 202] | 1900
Cc1ccccc1C1CCc2cc(OC3CCC(NC4CCCC4)CC3)ccc2O1 (centres unmarked) [compound 204] | 1900
Cc1ccccc1C1CCc2cc(OC3CCC(NCC4CCOCC4)CC3)ccc2O1 (centres unmarked) [compound 208] | 3000
Cc1ccccc1C1CCc2cc(OC3CCC(NCCN4CCSCC4)CC3)ccc2O1 (centres unmarked) [compound 209] | 3200
COCC(C)(C)CNC1CCC(Oc2ccc3c(c2)CCC(c2ccccc2F)O3)CC1 (centres unmarked) [compound 211] | 2200
Fc1ccccc1C1CCc2cc(OC3CCC(NC4CC4)CC3)ccc2O1 (centres unmarked) [compound 212] | 1700
COCCCNC1CCC(Oc2ccc3c(c2)CCC(c2ccccc2F)O3)CC1 (centres unmarked) [compound 215] | 2800
Fc1ccccc1C1CCc2cc(OC3CCC(NCC4CCCO4)CC3)ccc2O1 (centres unmarked) [compound 216] | 1700
CCSCCNC1CCC(Oc2ccc3c(c2)CCC(c2ccccc2F)O3)CC1 (centres unmarked) [compound 217] | 2300

The remaining lines, values ahead:

IC50 [nM] | Structure (SMILES)
1600 | c1ccc(C2CCc3cc(OC4CCC(NCCCOC5CCCC5)CC4)ccc3O2)cc1 (centres unmarked) [compound 126]
1600 | COCCNC1CCC(Oc2ccc3c(c2)CCC(c2ccccc2F)O3)CC1 (centres unmarked) [compound 214]
1500 | Cc1ccccc1C1CCc2cc(OC3CCC(NC4CC4)CC3)ccc2O1 (centres unmarked) [compound 203]
1500 | CCCNC1CCC(Oc2ccc3c(c2)CCC(c2ccccc2C)O3)CC1 (centres unmarked) [compound 205]
1500 | COC[C@H](C)NC1CCC(Oc2ccc3c(c2)CCC(c2ccccc2C)O3)CC1 (some centres unmarked) [compound 207]
1400 | CCCNC1CCC(Oc2ccc3c(c2)CCC(c2ccccc2F)O3)CC1 (centres unmarked) [compound 213]
1300 | COCC(C)NC1CCC(Oc2ccc3c(c2)CCC(c2ccccc2)O3)CC1 (centres unmarked) [compound 110]
1300 | CC(C)(C)CNC1CCC(Oc2ccc3c(c2)CCC(c2ccccc2)O3)CC1 (centres unmarked) [compound 161, N-(2,2-Dimethylpropyl)-4-(2-phenylchroman-6-yloxy)-cyclohexylamine]
1300 | O=C(NCc1ccnc(Cl)c1)C1CCC(Oc2ccc3c(c2)CCC(c2ccccc2F)O3)CC1 (centres unmarked) [compound 184]
1200 | CC(C)(C)OCCCNC1CCC(Oc2ccc3c(c2)CCC(c2ccccc2)O3)CC1 (centres unmarked) [compound 122]
1100 | O=C(NCCO)C1CCC(Oc2ccc3c(c2)CC[C@@H](c2ccccc2)O3)CC1 (stereo partly drawn) [compound 102, N-(2-Hydroxyethyl)-4-((S)-2-phenylchroman-6-yloxy)-cyclohexanecarboxamide]
1100 | c1ccc(C2CCc3cc(OC4CCC(NC5CCCCC5)CC4)ccc3O2)cc1 (centres unmarked) [compound 105]
1100 | CC(C)SCCNC1CCC(Oc2ccc3c(c2)CCC(c2ccccc2)O3)CC1 (centres unmarked) [compound 119]
1100 | CC(C)(C)CCNC1CCC(Oc2ccc3c(c2)CCC(c2ccccc2)O3)CC1 (centres unmarked) [compound 127]
1100 | CC(C)OCCCNC1CCC(Oc2ccc3c(c2)CCC(c2ccccc2)O3)CC1 (centres unmarked) [compound 134]
1100 | NCC(=O)N[C@H]1CC[C@H](Oc2ccc3c(c2)CC[C@H](c2ccccc2)O3)CC1 [compound 160, hydrochloride]
1100 | Cc1ccccc1C1CCc2cc(OC3CCC(NC4CCS(=O)(=O)C4)CC3)ccc2O1 (centres unmarked) [compound 206]
1100 | O=S1(=O)CCC(NC2CCC(Oc3ccc4c(c3)CCC(c3ccccc3F)O4)CC2)C1 (centres unmarked) [compound 210]
1000 | CC(C)C(C)NC1CCC(Oc2ccc3c(c2)CCC(c2ccccc2)O3)CC1 (centres unmarked) [compound 109]

IC50 [nM] | Structure (SMILES)
1000 | COCC(C)(C)CNC1CCC(Oc2ccc3c(c2)CCC(c2ccccc2)O3)CC1 (centres unmarked) [compound 115]
1000 | c1ccc(C2CCc3cc(OC4CCC(NC5CC5)CC4)ccc3O2)cc1 (centres unmarked) [compound 123]
900 | CCOCCCNC1CCC(Oc2ccc3c(c2)CCC(c2ccccc2)O3)CC1 (centres unmarked) [compound 112]
800 | c1ccc(C2CCc3cc(OC4CCC(NCc5ccoc5)CC4)ccc3O2)cc1 (centres unmarked) [compound 103]
800 | Cc1nn(C)c(C)c1CNC1CCC(Oc2ccc3c(c2)CCC(c2ccccc2)O3)CC1 (centres unmarked) [compound 104]
800 | CCCC(C)NC1CCC(Oc2ccc3c(c2)CCC(c2ccccc2)O3)CC1 (centres unmarked) [compound 106]
800 | CC(C)CCCNC1CCC(Oc2ccc3c(c2)CCC(c2ccccc2)O3)CC1 (centres unmarked) [compound 107]
800 | c1ccc(C2CCc3cc(OC4CCC(NCCC5CCOCC5)CC4)ccc3O2)cc1 (centres unmarked) [compound 120]
700 | CCC(C)CCNC1CCC(Oc2ccc3c(c2)CCC(c2ccccc2)O3)CC1 (centres unmarked) [compound 114]
700 | COCCCNC1CCC(Oc2ccc3c(c2)CCC(c2ccccc2)O3)CC1 (centres unmarked) [compound 121]
700 | c1ccc(C2CCc3cc(OC4CCC(NCC5CCCO5)CC4)ccc3O2)cc1 (centres unmarked) [compound 129]
700 | O=C(NCCO)C1CCC(Oc2ccc3c(c2)CCC(c2ccccc2F)O3)CC1 (centres unmarked) [compound 173]
600 | CCCCNC1CCC(Oc2ccc3c(c2)CCC(c2ccccc2)O3)CC1 (centres unmarked) [compound 108]
600 | CSCCNC1CCC(Oc2ccc3c(c2)CCC(c2ccccc2)O3)CC1 (centres unmarked) [compound 111]
600 | c1ccc(C2CCc3cc(OC4CCC(NCCCC5CCOC5)CC4)ccc3O2)cc1 (centres unmarked) [compound 116]
600 | CC1(O)CCC(Oc2ccc3c(c2)CCC(c2ccccc2)O3)CC1 (centres unmarked) [compound 163, 1-Methyl-4-(2-phenylchroman-6-yloxy)-cyclohexanol]
600 | O=C(NCc1ccno1)C1CCC(Oc2ccc3c(c2)CCC(c2ccccc2F)O3)CC1 (centres unmarked) [compound 174]
500 | CCCNC1CCC(Oc2ccc3c(c2)CCC(c2ccccc2)O3)CC1 (centres unmarked) [compound 113]
300 | N[C@@H](CO)C(=O)N[C@H]1CC[C@H](Oc2ccc3c(c2)CCC(c2ccccc2)O3)CC1 (some centres unmarked) [compound 181, hydrochloride]
